Measured values published in publication doi:10.1101/2023.07.20.549922v1 (biorxiv, 2023).

Legend:
AmGSTD1 [1] = target: T1, AmGSTD1 (Apis mellifera, UniProt A0A8U0Y9D4); assay: ANS displacement fluorescence, Ki from IC50; assay type: binding
T1 sequence (A0A8U0Y9D4 1-240): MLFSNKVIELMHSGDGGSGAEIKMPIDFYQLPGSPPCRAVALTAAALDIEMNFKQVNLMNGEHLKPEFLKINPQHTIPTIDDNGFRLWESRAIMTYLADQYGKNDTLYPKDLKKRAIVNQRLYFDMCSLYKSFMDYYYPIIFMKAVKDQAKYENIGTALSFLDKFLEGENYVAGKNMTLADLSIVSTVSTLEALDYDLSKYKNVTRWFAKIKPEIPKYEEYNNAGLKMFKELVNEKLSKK

AmGSTD1 [2] = target: T1, AmGSTD1; assay: ANS displacement fluorescence; assay type: binding
AmGSTD1 [3] = target: T1, AmGSTD1; assay: fluorescence saturation binding
AmGSTD1 [4] = target: T1, AmGSTD1; assay: absorbance initial rates, Michaelis-Menten; conditions: 4 mM GSH; 100 mM KPi pH 6.5; 30 °C
purified protein [5] = substrate: CCCCCC(O)/C=C/C=O; assay: purified protein; conditions: 0.5 mM GSH, 100 mM KPi pH 6.5, 30 °C
purified protein [6] = substrate: S=C=NCCc1ccccc1; assay: purified protein; conditions: 4 mM GSH, 100 mM KPi pH 6.5, 30 °C
purified protein [7] = substrate: CC(=O)Oc1ccc([N+](=O)[O-])cc1; assay: purified protein; conditions: 4 mM GSH, 100 mM KPi pH 6.5, 30 °C

Molecule | Ki (AmGSTD1 [1]) | IC50 (AmGSTD1 [2]) | also measured
O=C(O)COc1ccc(Cl)cc1Cl [2,4-D] | 41.4 µM | 1010 ± 56 µM | 
O=Cc1cccc(Oc2ccccc2)c1 [3-phenoxybenzaldehyde] | 302 µM |  | 
O=S(=O)(O)c1cccc2cccc(Nc3ccccc3)c12 [ANS] |  |  | Kd (AmGSTD1 [3]): 2.09 ± 0.102 µM
O=[N+]([O-])c1ccc(Cl)c([N+](=O)[O-])c1 [CDNB] | 49.6 µM | 1220 ± 55 µM | Km (AmGSTD1 [4]): 525 ± 70 µM
CCCN=C=S [PITC] |  |  | Km (AmGSTD1 [4]): 1100 ± 140 µM
Oc1nc(Cl)c(Cl)cc1Cl [TCP] | 25 µM | 613 ± 27 µM | 
C=C(CC)C(=O)c1ccc(OCC(=O)O)c(Cl)c1Cl [ethacrynic acid] | 41.5 µM | 1020 ± 40 µM | 
O=[N+]([O-])NC1=NCCN1Cc1ccc(Cl)nc1 [imidacloprid] | 130 µM |  | 
CCCCC(C#N)(Cn1cncn1)c1ccc(Cl)cc1 (stereo not shown) [myclobutanil] | 148 µM |  | 
O=C(O)COc1nc(Cl)c(Cl)cc1Cl [triclopyr] | 76.1 µM | 1860 ± 190 µM | 
AmGSTD1 (Apis mellifera) (protein) MLFSNKVIELMHSGDGGSGAEIKMPIDFYQLPGSPPCRAVALTAAALDIEMNFKQVNLMNGEHLKPEFLKINPQHTIPTIDDNGFRLWESRAIMTYLADQYGKNDTLYPKDLKKRAIVNQRLYFDMCSLYKSFMDYYYPIIFMKAVKDQAKYENIGTALSFLDKFLEGENYVAGKNMTLADLSIVSTVSTLEALDYDLSKYKNVTRWFAKIKPEIPKYEEYNNAGLKMFKELVNEKLSKK |  |  | Km (purified protein [5]): 106 ± 34 µM; kcat (purified protein [5]): 0.345 ± 0.0433 s⁻¹; Km (purified protein [6]): 819 ± 100 µM; kcat (purified protein [6]): 3.93 ± 0.2 s⁻¹; Km (purified protein [7]): 1160 ± 90 µM; kcat (purified protein [7]): 6.7 ± 0.233 s⁻¹
